Laboratory results reported in patent US12600714B2, “Substituted pyrazinecarboxamide compounds for treating diseases related to EGFR mutation” (WIGEN BIOMEDICINE TECHNOLOGY (SHANGHAI) CO., LTD., priority 2020, dated 2026).

The compounds below were run on EGFR (del19/T790M/C797S) (assay: HTRF inhibitory activity assay against EGFR (del19/T790M/C797S) enzyme).
Format: biochemical
Procedure: Inhibitory Activity Assay of the Compounds Disclosed Herein Against EGFR (del19/T790M/C797S), EGFR (L858R/T790M/C797S) or EGFR (WT) Enzymes
The inhibitory effects of the compounds against EGFR (del19/T790M/C797S), EGFR (L858R/T790M/C797S) or EGFR (WT) enzyme activity was determined by using HTRF. The procedures are as follows:
The WT or mutant EGFR proteins were incubated with a serially diluted compounds at 28° C. for 10 min followed by addition of biotin-labeled general tyrosine kinase (TK) substrate and ATP. The mixture was incubated at room temperature for 40 min for reaction. After the termination of the reaction, an Eu3+-Cryptate-labeled antibody against TK and streptavidin-XL665 were added and the mixture was incubated at room temperature for 60 min. The luminescences at 615 nm and 665 nm were detected and the ratio of 665/615 was calculated to quantify the level of TK substrate phosphorylation. Inhibition % and IC50 of the compounds were calculated relative to the control group.

| SMILES | EGFR (del19/T790M/C797S) inhibition (%) (0.3 nM compound) |
| --- | --- |
| CN1CCN(C2CCN(c3ccc(Nc4nc(NC5CCOCC5)c(-c5cncnc5)nc4C(N)=O)cc3)CC2)CC1 [compound 72] | + (+ indicates an inhibition less than or equal to 20%) |
| CN1CCN(C2CCN(c3ccc(Nc4nc(NC5CCOCC5)c(-c5ccccc5C(F)F)nc4C(N)=O)cc3)CC2)CC1 [compound 82] | + (+ indicates an inhibition less than or equal to 20%) |
| CN1CCN(C2CCN(c3ccc(Nc4nc(NC5CCOCC5)c(-c5cccc(NS(C)(=O)=O)c5)nc4C(N)=O)cc3)CC2)CC1 [compound 90] | + (+ indicates an inhibition less than or equal to 20%) |
| CN1CCN(C2CCN(c3ccc(Nc4nc(NC5CCOCC5)c(-c5ccoc5)nc4C(N)=O)cc3)CC2)CC1 [compound 91] | ++ (++ indicates an inhibition from 20% to 50%) |
| CN1CCN(C2CCN(c3ccc(Nc4nc(NC5CCOCC5)c(-c5cccc(N)c5)nc4C(N)=O)cc3)CC2)CC1 [compound 92] | ++ (++ indicates an inhibition from 20% to 50%) |
| CN1CCN(C2CCN(c3ccc(Nc4nc(NC5CCOCC5)c(-c5ccsc5)nc4C(N)=O)cc3)CC2)CC1 [compound 93] | ++ (++ indicates an inhibition from 20% to 50%) |
| CN1CCN(C2CCN(c3ccc(Nc4nc(NC5CCOCC5)c(-c5ccc(N)cc5)nc4C(N)=O)cc3)CC2)CC1 [compound 95] | ++ (++ indicates an inhibition from 20% to 50%) |
| CN1CCN(C2CCN(c3ccc(Nc4nc(NC5CCOCC5)c(-c5ccccc5N)nc4C(N)=O)cc3)CC2)CC1 [compound 98] | + (+ indicates an inhibition less than or equal to 20%) |
| CN1CCN(C2CCN(c3ccc(Nc4nc(NC5CCOCC5)c(-c5ccccc5O)nc4C(N)=O)cc3)CC2)CC1 [compound 99] | + (+ indicates an inhibition less than or equal to 20%) |
| CC(=O)Nc1cccc(-c2nc(C(N)=O)c(Nc3ccc(N4CCC(N5CCN(C)CC5)CC4)cc3)nc2NC2CCOCC2)c1 [compound 100] | + (+ indicates an inhibition less than or equal to 20%) |
| CN1CCN(C2CCN(c3ccc(Nc4nc(NC5CCOCC5)c(-c5ccc(C(F)F)cc5)nc4C(N)=O)cc3)CC2)CC1 [compound 101] | + (+ indicates an inhibition less than or equal to 20%) |
| CN1CC=C(c2nc(C(N)=O)c(Nc3ccc(N4CCC(N5CCN(C)CC5)CC4)cc3)nc2NC2CCOCC2)CC1 [compound 102] | + (+ indicates an inhibition less than or equal to 20%) |
| CN1CCN(C2CCN(c3ccc(Nc4nc(NC5CCOCC5)c(-c5ccncc5F)nc4C(N)=O)cc3)CC2)CC1 [compound 103] | ++ (++ indicates an inhibition from 20% to 50%) |
| CN1CCN(C2CCN(c3ccc(Nc4nc(NC5CCOCC5)c(-c5cccc(C(F)F)c5)nc4C(N)=O)cc3)CC2)CC1 [compound 105] | + (+ indicates an inhibition less than or equal to 20%) |
| CN1CCN(C2CCN(c3ccc(Nc4nc(NC5CCOCC5)c(-c5ccn(C)c(=O)c5)nc4C(N)=O)cc3)CC2)CC1 [compound 106] | + (+ indicates an inhibition less than or equal to 20%) |
| CN1CCN(C2CCN(c3ccc(Nc4nc(NC5CCOCC5)c(-c5ccccc5NS(C)(=O)=O)nc4C(N)=O)cc3)CC2)CC1 [compound 107] | + (+ indicates an inhibition less than or equal to 20%) |
| CN1CCN(C2CCN(c3ccc(Nc4nc(NC5CCOCC5)c(C5=CCNCC5)nc4C(N)=O)cc3)CC2)CC1 [compound 109] | + (+ indicates an inhibition less than or equal to 20%) |
| COc1cc(Nc2nc(NC3CCOCC3)c(-c3ccccc3)nc2C(N)=O)ccc1N1CCC(N2CCN(C)CC2)CC1 [compound 112] | + (+ indicates an inhibition less than or equal to 20%) |
| COc1cc(N2CCC(N3CCN(C)CC3)CC2)ccc1Nc1nc(NC2CCOCC2)c(-c2ccccc2)nc1C(N)=O [compound 113] | + (+ indicates an inhibition less than or equal to 20%) |

| SMILES | EGFR (del19/T790M/C797S) inhibition (%) (0.3 nM compound) |
| --- | --- |
| CN1CCN(C2CCN(c3ccc(Nc4nc(NC5CCOCC5)c(N5CCCCC5)nc4C(N)=O)cc3)CC2)CC1 [compound 116, 3-((4-(4-(4-methylpiperazin-1-yl)piperidin-1-yl)phenyl)amino)-6-(piperidin-1-yl)-5-((tetrahydro-2H-pyran-4-yl)amino)pyrazine-2-carboxamide] | + (+ indicates an inhibition less than or equal to 20%) |
| CN(C)CCCNc1nc(Nc2ccc(N3CCC(N4CCN(C)CC4)CC3)cc2)c(C(N)=O)nc1-c1ccccc1 [compound 117] | + (+ indicates an inhibition less than or equal to 20%) |
| CN1CCN(C2CCN(c3ccc(Nc4nc(N[C@@H]5CCC[C@@H]5O)c(-c5ccccc5)nc4C(N)=O)cc3)CC2)CC1 [compound 133] | ++ (++ indicates an inhibition from 20% to 50%) |
| CN1CCN(C2CCN(c3ccc(Nc4nc(N[C@@H]5CCC[C@H]5O)c(-c5ccccc5)nc4C(N)=O)cc3)CC2)CC1 [compound 134] | ++ (++ indicates an inhibition from 20% to 50%) |
| CN1CCN(C2CCN(c3ccc(Nc4nc(N[C@@H]5CC[C@H](O)C5)c(-c5ccccc5)nc4C(N)=O)cc3)CC2)CC1 [compound 136, 5-(((1R,3S)-3-hydroxycyclopentyl)amino)-3-((4-(4-(4-methylpiperazin-1-yl)piperidin-1-yl)phenyl)amino)-6-phenylpyrazine-2-carboxamide] | ++ (++ indicates an inhibition from 20% to 50%) |
| CN1CCN(C2CCN(c3ccc(Nc4nc(N[C@H]5CC[C@H](O)C5)c(-c5ccccc5)nc4C(N)=O)cc3)CC2)CC1 [compound 138, 5-(((1S,3S)-3-hydroxycyclopentyl)amino)-3-((4-(4-(4-methylpiperazin-1-yl)piperidin-1-yl)phenyl)amino)-6-phenylpyrazine-2-carboxamide] | ++ (++ indicates an inhibition from 20% to 50%) |
| CN1CCN(C2CCN(c3ccc(Nc4nc(N[C@H]5CC[C@@H](O)C5)c(-c5ccccc5)nc4C(N)=O)cc3)CC2)CC1 [compound 139, 5-(((1S,3R)-3-hydroxycyclopentyl)amino)-3-((4-(4-(4-methylpiperazin-1-yl)piperidin-1-yl)phenyl)amino)-6-phenylpyrazine-2-carboxamide] | ++ (++ indicates an inhibition from 20% to 50%) |
| Cc1cc(Nc2nc(NC3CCOCC3)c(-c3ccncc3)nc2C(N)=O)ccc1N1CCC(N2CCN(C3CC3)CC2)CC1 [compound 146] | ++ (++ indicates an inhibition from 20% to 50%) |
| Cc1cc(-c2nc(C(N)=O)c(Nc3ccc(N4CCC(N5CCN(C)CC5)CC4)c(C)c3)nc2NC2CCOCC2)ccn1 [compound 154] | ++ (++ indicates an inhibition from 20% to 50%) |
| [2H]C([2H])([2H])N1CCN(C2CCN(c3ccc(Nc4nc(NC5CCOCC5)c(-c5ccccn5)nc4C(N)=O)cc3)CC2)CC1 [compound 206] | ++ (++ indicates an inhibition from 20% to 50%) |
| NC(=O)c1nc(-c2ccccn2)c(NC2CCOCC2)nc1Nc1ccc(N2CCC(N3CCN(C4CC4)CC3)CC2)cc1 [compound 207] | ++ (++ indicates an inhibition from 20% to 50%) |
| CN1CCN(C2CCN(c3ccc(Nc4nc(NC5CCOCC56CC6)c(-c5ccccn5)nc4C(N)=O)cc3)CC2)CC1 (stereo not shown) [compound 255] | ++ (++ indicates an inhibition from 20% to 50%) |
| CN1CCN(C2CCN(c3ccc(Nc4nc(NC5CCOC6(CC6)C5)c(-c5ccccn5)nc4C(N)=O)cc3)CC2)CC1 (stereo not shown) [compound 263] | ++ (++ indicates an inhibition from 20% to 50%) |
| NC(=O)c1nc(-c2ccccn2)c(NC2CCOC3(CC3)C2)nc1Nc1ccc(N2CCC(N3CCN(C4CC4)CC3)CC2)cc1 (stereo not shown) [compound 264] | ++ (++ indicates an inhibition from 20% to 50%) |
| CN1CCN(C2CCN(c3ccc(Nc4nc(NC5CC6(CCOCC6)C5)c(-c5ccccn5)nc4C(N)=O)cc3)CC2)CC1 [compound 271] | ++ (++ indicates an inhibition from 20% to 50%) |
| Cc1cc(Nc2nc(NC3CC4(CCOCC4)C3)c(-c3ccncc3)nc2C(N)=O)ccc1N1CCC(N2CCN(C)CC2)CC1 [compound 379] | ++ (++ indicates an inhibition from 20% to 50%) |
| CN1CCN(C2CCN(c3ccc(Nc4nc(NC5CCOCC5)c(-c5ccnc6[nH]ccc56)nc4C(N)=O)cc3F)CC2)CC1 [compound 520] | +++ (+++ indicates an inhibition greater than 50%.) |
| CC(C)Nc1nc(Nc2ccc(N3CCC(N4CCN(C)CC4)CC3)c(F)c2)c(C(N)=O)nc1-c1cccc2[nH]ccc12 [compound 530] | +++ (+++ indicates an inhibition greater than 50%.) |
